Measurements: patent publication US12209087B2, “AKT1 modulators” (Alterome Therapeutics, Inc., priority 2022, dated 2025)

Molecular target: T1, full length AKT E17K (Homo sapiens, UniProt P31749, E17K)
T1 construct: host or cells: HEK-293 (ATCC CRL-1573)
Assay: NanoBRET Target Engagement (TE) Assay
Assay type: cell-based
Details: competitive displacement of tracer in cells, read-out: AKT1 E17K IC50
Method in brief: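 Compound and tracer incubated 2 h before luminescence at donor 450 nm and acceptor 600 nm, with extracellular signal inhibited. EC50 by sigmoidal variable-slope regression.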

T1 sequence (P31749 whole entry E17K): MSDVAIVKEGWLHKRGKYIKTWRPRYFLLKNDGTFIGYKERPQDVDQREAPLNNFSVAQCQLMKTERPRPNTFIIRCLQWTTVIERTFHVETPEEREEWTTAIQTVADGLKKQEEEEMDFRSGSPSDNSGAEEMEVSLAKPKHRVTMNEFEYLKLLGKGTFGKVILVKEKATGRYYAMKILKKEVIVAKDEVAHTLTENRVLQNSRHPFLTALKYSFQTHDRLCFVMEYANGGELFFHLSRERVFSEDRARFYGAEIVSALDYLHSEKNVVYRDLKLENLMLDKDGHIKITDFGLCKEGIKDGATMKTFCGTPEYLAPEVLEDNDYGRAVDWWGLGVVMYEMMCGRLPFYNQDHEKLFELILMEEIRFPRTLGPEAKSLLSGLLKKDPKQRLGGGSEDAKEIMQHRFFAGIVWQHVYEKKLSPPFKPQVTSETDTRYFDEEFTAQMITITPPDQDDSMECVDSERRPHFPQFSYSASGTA

| SMILES | IC50 [nM] |
| --- | --- |
| [2H]C([2H])(c1ccc(-n2c(-c3cccnc3N)nc3cccnc32)cc1)N1CCC(Nc2ccnc(C#N)n2)CC1 [Example 385, 4-((1-((4-(2-(2-Aminopyridin-3-yl)-3H-imidazo[4,5-b]pyridin-3-yl)phenyl)methyl-d2)piperidin-4-yl)amino)pyrimidine-2-carbonitrile] | 15 to 60 |
| CN1CCCN(c2ccc3nc(-c4cccnc4N)n(-c4ccc(CN5CCN(c6ccnc(C#N)n6)CC5)cc4)c3n2)CC1=O [Example 386, 4-(4-(4-(2-(2-Aminopyridin-3-yl)-5-(4-methyl-3-oxo-1,4-diazepan-1-yl)-3H-imidazo[4,5-b]pyridin-3-yl)benzyl)piperazin-1-yl)pyrimidine-2-carbonitrile] | 15 to 60 |
| N#Cc1nccc(NC2CCN(Cc3ccc(-n4c(-c5cccnc5N)nc5ccc(N6CCOCC6=O)nc54)cc3)CC2)n1 [Example 387, 4-((1-(4-(2-(2-Aminopyridin-3-yl)-5-(3-oxomorpholino)-3H-imidazo[4,5-b]pyridin-3-yl)benzyl)piperidin-4-yl)amino)pyrimidine-2-carbonitrile] | 60 to 600 |
| N#Cc1nccc(NC2CCN(Cc3ccc(-n4c(-c5cccnc5N)nc5ccc(C6CCCC6)nc54)cc3)CC2)n1 [Example 388, 4-((1-(4-(2-(2-Aminopyridin-3-yl)-5-cyclopentyl-3H-imidazo[4,5-b]pyridin-3-yl)benzyl)piperidin-4-yl)amino)pyrimidine-2-carbonitrile] | < 15 |
| CN(C)c1ccc2nc(-c3cccnc3N)n(-c3ccc(CN4CCC(Nc5ccnc(C#N)n5)CC4)cc3)c2n1 [Example 389, 4-((1-(4-(2-(2-Aminopyridin-3-yl)-5-(dimethylamino)-3H-imidazo[4,5-b]pyridin-3-yl)benzyl)piperidin-4-yl)amino)pyrimidine-2-carbonitrile] | < 15 |
| CN(c1ccnc(C#N)n1)C1CCN(Cc2ccc(-n3c(-c4cccnc4N)nc4cccnc43)cc2)CC1 [Example 390, 4-((1-(4-(2-(2-Aminopyridin-3-yl)-3H-imidazo[4,5-b]pyridin-3-yl)benzyl)piperidin-4-yl)(methyl)amino)pyrimidine-2-carbonitrile] | < 15 |
| N#Cc1ncnc(NC2CCN(Cc3ccc(-n4c(-c5cccnc5N)nc5ccc(-c6ccccc6)nc54)cc3)CC2)n1 [Example 391, 4-((1-(4-(2-(2-Aminopyridin-3-yl)-5-phenyl-3H-imidazo[4,5-b]pyridin-3-yl)benzyl)piperidin-4-yl)amino)-1,3,5-triazine-2-carbonitrile] | < 15 |
| CC1(Nc2ccnc(C#N)n2)CCN(Cc2ccc(-n3c(-c4cccnc4N)nc4cccnc43)cc2)CC1 [Example 392, 4-((1-(4-(2-(2-Aminopyridin-3-yl)-3H-imidazo[4,5-b]pyridin-3-yl)benzyl)-4-methylpiperidin-4-yl)amino)pyrimidine-2-carbonitrile] | 60 to 600 |
| Cn1c(-c2ccc3nc(-c4cccnc4N)n(-c4ccc(CN5CCC(Nc6ccnc(C#N)n6)CC5)cc4)c3n2)cccc1=O [Example 393, 4-((1-(4-(2-(2-Aminopyridin-3-yl)-5-(1-methyl-6-oxo-1,6-dihydropyridin-2-yl)-3H-imidazo[4,5-b]pyridin-3-yl)benzyl)piperidin-4-yl)amino)pyrimidine-2-carbonitrile] | 600 to 10000 |
| Cn1c(-c2ccc3nc(-c4cccnc4N)n(-c4ccc(CN5CCN(c6ccnc(C#N)n6)CC5)cc4)c3n2)cccc1=O [Example 394, 4-(4-(4-(2-(2-Aminopyridin-3-yl)-5-(1-methyl-6-oxo-1,6-dihydropyridin-2-yl)-3H-imidazo[4,5-b]pyridin-3-yl)benzyl)piperazin-1-yl)pyrimidine-2-carbonitrile] | 600 to 10000 |
| COc1cccc(-c2ccc3nc(-c4cccnc4N)n(-c4ccc(CN5CCC(Nc6ccnc(C#N)n6)CC5)cc4)c3n2)c1 [Example 395, 4-((1-(4-(2-(2-Aminopyridin-3-yl)-5-(3-methoxyphenyl)-3H-imidazo[4,5-b]pyridin-3-yl)benzyl)piperidin-4-yl)amino)pyrimidine-2-carbonitrile] | < 15 |
